According to patent US9999619B2, “Piperidin-4-yl azetidine derivatives as JAK1 inhibitors” (Incyte Corporation, priority 2010, dated 2018):

Experiments:
Format in all cases: biochemical
[1] = biological target: human JAK1 (a.a. 837-1142) (Homo sapiens, UniProt P23458); assay: In vitro JAK kinase assay (HTRF, phosphorylation of a biotinylated peptide), JAK1; conditions: measured at 1 mM ATP
Outline: (§1)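 Phosphorylation of a biotinylated peptide by purified His-tagged JAK catalytic domains (insect-cell baculovirus expression) ran 1 hr at room temperature. After stopping with EDTA, Eu-Py20 and SA-APC were bound for 40 minutes and HTRF measured.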

[2] = biological target: human JAK1 (a.a. 837-1142); assay: as above; conditions: ratio of JAK2 IC50 to JAK1 IC50, measured at 1 mM ATP
Outline: as §1

[3] = biological target: Jak2 (a.a. 828-1132) (Homo sapiens (Human), UniProt O60674); assay: In vitro JAK kinase assay (HTRF, phosphorylation of a biotinylated peptide), JAK2; conditions: measured at 1 mM ATP
Outline: as §1

Chain of Jak2 (a.a. 828-1132) (O60674 828-1132): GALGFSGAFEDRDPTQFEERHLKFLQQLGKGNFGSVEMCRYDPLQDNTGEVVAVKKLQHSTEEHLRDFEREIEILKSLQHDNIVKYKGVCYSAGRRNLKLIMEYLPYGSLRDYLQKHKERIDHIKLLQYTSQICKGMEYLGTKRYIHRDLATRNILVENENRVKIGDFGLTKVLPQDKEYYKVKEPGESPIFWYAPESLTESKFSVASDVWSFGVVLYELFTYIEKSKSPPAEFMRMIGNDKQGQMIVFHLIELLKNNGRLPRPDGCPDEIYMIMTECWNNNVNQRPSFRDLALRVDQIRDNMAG

Structure (SMILES)	IC50 [1]	IC50 Ratio JAK2/JAK1 [2]	IC50 [3]
N#CCC1(n2cc(-c3ncnc4[nH]ccc34)cn2)CN(C2CCN(C(=O)C3CCC(C(F)(F)F)CC3)CC2)C1 (stereo not drawn) [Example 98, {3-[4-(7H-pyrrolo[2,3-d]pyrimidin-4-yl)-1H-pyrazol-1-yl]-1-(1-{[4-(trifluoromethyl)cyclohexyl]carbonyl}piperidin-4-yl)azetidin-3-yl]acetonitrile]	5 to 20 nM	3.7	50 to 100 nM
N#CCC1(n2cc(-c3ncnc4[nH]ccc34)cn2)CN(C2CCN(C(=O)C3CCC(F)(F)CC3)CC2)C1 [Example 100, {1-{1-[(4,4-difluorocyclohexyl)carbonyl]piperidin-4-yl}-3-[4-(7H-pyrrolo[2,3-d]pyrimidin-4-yl)-1H-pyrazol-1-yl]azetidin-3-yl}acetonitrile]	5 to 20 nM	6.6	50 to 100 nM
N#CCC1(n2cc(-c3ncnc4[nH]ccc34)cn2)CN(C2CCN(C(=O)C3CCC(c4ccc(Cl)cc4)CC3)CC2)C1 (stereo not drawn) [Example 105, {1-(1-{[4-(4-chlorophenyl)cyclohexyl]carbonyl}piperidin-4-yl)-3-[4-(7H-pyrrolo[2,3-d]pyrimidin-4-yl)-1H-pyrazol-1-yl]azetidin-3-yl}acetonitrile]	5 to 20 nM	7.2	> 100 nM
N#CCC1(n2cc(-c3ncnc4[nH]ccc34)cn2)CN(C2CCN(C(=O)C3(c4ccccc4)CC3)CC2)C1 [Example 110, {1-{1-[(1-phenylcyclopropyl)carbonyl]piperidin-4-yl}-3-[4-(7H-pyrrolo[2,3-d]pyrimidin-4-yl)-1H-pyrazol-1-yl]azetidin-3-yl}acetonitrile]	5 to 20 nM	1.6	10 to 50 nM
N#CCC1(n2cc(-c3ncnc4[nH]ccc34)cn2)CN(C2CCN(C(=O)C3(c4ccc(Cl)cc4)CC3)CC2)C1 [Example 111, {1-(1-{[1-(4-chlorophenyl)cyclopropyl]carbonyl}piperidin-4-yl)-3-[4-(7H-pyrrolo[2,3-d]pyrimidin-4-yl)-1H-pyrazol-1-yl]azetidin-3-yl}acetonitrile]	5 to 20 nM	2.6	10 to 50 nM

Second part, the compound after the results:

IC50 [1]	IC50 Ratio JAK2/JAK1 [2]	IC50 [3]	Structure (SMILES)
5 to 20 nM	2.2	10 to 50 nM	N#CCC1(n2cc(-c3ncnc4[nH]ccc34)cn2)CN(C2CCN(C(=O)C3CCc4ccccc4C3)CC2)C1 (stereo not drawn) [Example 97, {3-[4-(7H-pyrrolo[2,3-d]pyrimidin-4-yl)-1H-pyrazol-1-yl]-1-[1-(1,2,3,4-tetrahydronaphthalen-2-ylcarbonyl)piperidin-4-yl]azetidin-3-yl}acetonitrile]
5 to 20 nM	8.3	> 100 nM	N#CCC1(n2cc(-c3ncnc4[nH]ccc34)cn2)CN(C2CCN(C(=O)C3CCCC3)CC2)C1 [Example 101, {1-[1-(cyclopentylcarbonyl)piperidin-4-yl]-3-[4-(7H-pyrrolo[2,3-d]pyrimidin-4-yl)-1H-pyrazol-1-yl]azetidin-3-yl}acetonitrile]
20 to 30 nM	1.1	10 to 50 nM	N#CCC1(n2cc(-c3ncnc4[nH]ccc34)cn2)CN(C2CCN(C(=O)Cc3ccccc3)CC2)C1 [Example 109, {1-[1-(phenylacetyl)piperidin-4-yl]-3-[4-(7H-pyrrolo[2,3-d]pyrimidin-4-yl)-1H-pyrazol-1-yl]azetidin-3-yl}acetonitrile]
5 to 20 nM	8.2	50 to 100 nM	N#CCC1(n2cc(-c3ncnc4[nH]ccc34)cn2)CN(C2CCN(C(=O)Cc3c(Cl)cccc3Cl)CC2)C1 [Example 112, {1-{1-[(2,6-dichlorophenyl)acetyl]piperidin-4-yl}-3-[4-(7H-pyrrolo[2,3-d]pyrimidin-4-yl)-1H-pyrazol-1-yl]azetidin-3-yl}acetonitrile]
